SMILES strings stand for the structures. Inconclusive results and toxic doses are left out.

The test deals with L1210 leukemia ip in BDF1 mice, survival T/C. The experiment in a line: NCI In Vivo Anticancer Drug Screen. Data for tumor model L1210 Leukemia (intraperitoneal) in B6D2F1 (BDF1) mice. To be noted: endpoint: mean survival time, higher = longer survival. The method, boiled down: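 Value reflects the ratio of survival in compound-treated mice to survival in vehicle-treated controls, with both groups carrying the same transplanted tumor.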

The mark [1] stands for this setting: dose: 100.0 mg/kg/injection, schedule: Q01DX001 (ip), vehicle: Klucel (hydroxypropylcellulose) (HPC).
The mark [2] stands for this setting: dose: 200.0 mg/kg/injection, schedule: Q01DX001 (ip), vehicle: Klucel (hydroxypropylcellulose) (HPC).
Setting [3] is: dose: 400.0 mg/kg/injection, schedule: Q01DX001 (ip), vehicle: Klucel (hydroxypropylcellulose) (HPC).
The mark [4] stands for this setting: dose: 50.0 mg/kg/injection, schedule: Q04DX002 (ip), vehicle: Klucel (hydroxypropylcellulose) (HPC).
Where [5] appears, read: dose: 100.0 mg/kg/injection, schedule: Q04DX002 (ip), vehicle: Klucel (hydroxypropylcellulose) (HPC).
Where [6] appears, read: dose: 100.0 mg/kg/injection, schedule: Q01DX001 (ip), vehicle: saline.
Where [7] appears, read: dose: 100.0 mg/kg/injection, schedule: Q01DX009 (ip), vehicle: saline.
Where [8] appears, read: dose: 200.0 mg/kg/injection, schedule: Q01DX001 (ip), vehicle: saline.
Where [9] appears, read: dose: 200.0 mg/kg/injection, schedule: Q01DX009 (ip), vehicle: saline.
Setting [10] is: dose: 400.0 mg/kg/injection, schedule: Q01DX001 (ip), vehicle: saline.
Where [11] appears, read: dose: 400.0 mg/kg/injection, schedule: Q01DX009 (ip), vehicle: saline.

With `CCCCCCCCCCCCCCCCCC(=O)OCCOC(=O)CCCCCCCCCCCCCCCCC`, the T/C is 103 % of control (dose: 75.0 mg/kg/injection, schedule: Q01DX009 (ip), vehicle: other); 88 % of control (dose: 100.0 mg/kg/injection, schedule: Q04DX002 (ip), vehicle: other); 96 % of control (dose: 150.0 mg/kg/injection, schedule: Q01DX009 (ip), vehicle: other); 98 % of control (dose: 200.0 mg/kg/injection, schedule: Q04DX002 (ip), vehicle: other); 111 % of control (dose: 300.0 mg/kg/injection, schedule: Q01DX009 (ip), vehicle: other).

As to `CN(C)/N=N/c1ccn[nH]1`, the T/C (dose: 50.0 mg/kg/injection, schedule: Q01DX005 (ip), vehicle: saline) is 105 % of control.

As for `O=c1oc2ccc(F)cc2c2ccccc12`, the T/C is, setting by setting: under setting [1], 92 % of control; under setting [2], 103 % of control; under setting [3], 90 % of control.

As to `O=C(c1cccc([N+](=O)[O-])c1)C1CC1`, the T/C is, setting by setting: (dose: 25.0 mg/kg/injection, schedule: Q01DX001 (ip), vehicle: Klucel (hydroxypropylcellulose) (HPC)) 97 % of control; (dose: 50.0 mg/kg/injection, schedule: Q01DX001 (ip), vehicle: Klucel (hydroxypropylcellulose) (HPC)) 101 % of control; under setting [1], 95 % of control.

Regarding `O=C(O)CCCCCCC1CCCC1=O` (centres undefined), the T/C (dose: 100.0 mg/kg/injection, schedule: Q01DX009 (ip), vehicle: saline sonified) was 97 % of control; the T/C (dose: 200.0 mg/kg/injection, schedule: Q01DX009 (ip), vehicle: saline sonified) was 91 % of control; the T/C (dose: 400.0 mg/kg/injection, schedule: Q01DX009 (ip), vehicle: saline sonified) is 97 % of control.

For the compound `CC1(C)CC(=O)C(C)(C)C(=O)C1` (tested in a mixture with another compound), the T/C by setting is: (dose: 25.0 mg/kg/injection, schedule: Q04DX002 (ip), vehicle: Klucel (hydroxypropylcellulose) (HPC)) 102 % of control; under setting [4], 96 % of control; under setting [5], 108 % of control.

With `CC1(C)CC(=O)C=C(OCCc2ccccc2)C1`, the T/C runs as follows: (dose: 100.0 mg/kg/injection, schedule: Q04DX003 (ip), vehicle: saline with Tween-80) 96 % of control; (dose: 200.0 mg/kg/injection, schedule: Q04DX003 (ip), vehicle: saline with Tween-80) 94 % of control; (dose: 400.0 mg/kg/injection, schedule: Q04DX003 (ip), vehicle: saline with Tween-80) 91 % of control.

For the compound `CC(C)/C=N/N(C)C(=O)Nc1cccc2ccccc12`, the T/C (dose: 50.0 mg/kg/injection, schedule: Q01DX001 (ip), vehicle: carboxymethylcellulose (CMC)) was 97 % of control; the T/C (dose: 100.0 mg/kg/injection, schedule: Q01DX001 (ip), vehicle: carboxymethylcellulose (CMC)) was 94 % of control; the T/C (dose: 200.0 mg/kg/injection, schedule: Q01DX001 (ip), vehicle: carboxymethylcellulose (CMC)) is 94 % of control; the T/C (dose: 400.0 mg/kg/injection, schedule: Q01DX001 (ip), vehicle: carboxymethylcellulose (CMC)) was 90 % of control.

`O=C(Cc1ccccc1)C(c1ccccc1)C(c1ccccc1)c1ccccc1` (centres undefined): the T/C was 96 % of control (dose: 100.0 mg/kg/injection, schedule: Q04DX002 (ip), vehicle: saline with Tween-80); 111 % of control (dose: 200.0 mg/kg/injection, schedule: Q04DX002 (ip), vehicle: saline with Tween-80); 107 % of control (dose: 400.0 mg/kg/injection, schedule: Q04DX002 (ip), vehicle: saline with Tween-80).

As for `COC(=O)c1ccc(C)nc1OC/C=C(\C)CCC=C(C)C`, the T/C runs as follows: under setting [6], 104 % of control; under setting [7], 110 % of control; under setting [8], 99 % of control; under setting [9], 102 % of control; under setting [10], 90 % of control; under setting [11], 106 % of control.

For the compound `CCCCCC(O)CCCCC`, the T/C under setting [7] was 102 % of control, the T/C under setting [9] was 107 % of control and the T/C under setting [11] is 113 % of control.

As to `Cc1coc(NS(=O)(=O)c2ccc(N=Nc3c(N)[nH]c(=O)[nH]c3=O)cc2)c1C`, the T/C under setting [6] was 103 % of control, the T/C under setting [8] was 96 % of control and the T/C under setting [10] was 104 % of control.

As for `Oc1ccc(Cl)cc1/C=N/Nc1c2ccccc2nc2ccccc12`, the T/C under setting [6] was 89 % of control, the T/C under setting [8] is 103 % of control and the T/C under setting [10] is 105 % of control.

With `CCCCN1CCN(CCCC)C1=O`, the T/C is 90 % of control under setting [5] and 90 % of control (dose: 200.0 mg/kg/injection, schedule: Q04DX002 (ip), vehicle: Klucel (hydroxypropylcellulose) (HPC)).

For the compound `N=C(N)N=Nc1c(O)[nH]c2ccccc12`, the T/C is 103 % of control (dose: 15.0 mg/kg/injection, schedule: Q01DX Z (ip), vehicle: saline); 100 % of control (dose: 30.0 mg/kg/injection, schedule: Q01DX Z (ip), vehicle: saline); 102 % of control (dose: 37.5 mg/kg/injection, schedule: Q01DX Z (oral), vehicle: carboxymethylcellulose (CMC)); 94 % of control (dose: 60.0 mg/kg/injection, schedule: Q01DX Z (ip), vehicle: saline); 98 % of control (dose: 75.0 mg/kg/injection, schedule: Q01DX Z (oral), vehicle: carboxymethylcellulose (CMC)); 90 % of control (dose: 120.0 mg/kg/injection, schedule: Q01DX Z (ip), vehicle: saline). Moreover, the T/C (dose: 120.0 mg/kg/injection, schedule: Q01DX Z (oral), vehicle: other) is 95 % of control; the T/C (dose: 150.0 mg/kg/injection, schedule: Q01DX Z (oral), vehicle: carboxymethylcellulose (CMC)) was 105 % of control; the T/C (dose: 240.0 mg/kg/injection, schedule: Q01DX Z (oral), vehicle: other) was 98 % of control.

For the compound `CN(C)CCC(c1ccccc1)c1nc(N)nc(C(CCN(C)C)c2ccccc2)n1` (centres undefined), the T/C is, setting by setting: under setting [4], 102 % of control; (dose: 100.0 mg/kg/injection, schedule: Q01DX009 (ip), vehicle: Klucel (hydroxypropylcellulose) (HPC)) 115 % of control; under setting [5], 105 % of control.

Consider `CC(=O)/C=C/c1ccc2c(c1)OCO2`, for which the T/C (dose: 25.0 mg/kg/injection, schedule: Q01DX009 (ip), vehicle: saline) was 105 % of control; the T/C (dose: 50.0 mg/kg/injection, schedule: Q01DX009 (ip), vehicle: saline) was 96 % of control; the T/C under setting [7] was 110 % of control; the T/C under setting [9] is 94 % of control; the T/C under setting [11] is 102 % of control.

Take `CC1(C)N=C(N)N=C(N)N1c1ccc(CC(C(=O)Nc2ccc(S(=O)(=O)F)cc2)c2cccc3ccccc23)cc1` (centres undefined): the T/C reads like this: under setting [1], 95 % of control; under setting [2], 89 % of control; under setting [3], 89 % of control.

With `Cc1cccc(C)c1NC(=O)N(CCCl)N=O`, the T/C is 150 % of control (dose: 5.7 mg/kg/injection, schedule: Q01DX Z (oral), vehicle: carboxymethylcellulose (CMC)); 206 % of control (dose: 13.0 mg/kg/injection, schedule: Q01DX Z (oral), vehicle: carboxymethylcellulose (CMC)); 192 % of control (dose: 16.0 mg/kg/injection, schedule: Q01DX001 (ip), vehicle: carboxymethylcellulose (CMC)); 170 % of control (dose: 20.0 mg/kg/injection, schedule: Q01DX Z (oral), vehicle: carboxymethylcellulose (CMC)); 308 % of control (dose: 31.0 mg/kg/injection, schedule: Q01DX001 (ip), vehicle: carboxymethylcellulose (CMC)); 156 % of control (dose: 62.0 mg/kg/injection, schedule: Q01DX001 (ip), vehicle: carboxymethylcellulose (CMC)). The T/C by setting is: (dose: 125.0 mg/kg/injection, schedule: Q01DX001 (ip), vehicle: carboxymethylcellulose (CMC)) 156 % of control; (dose: 187.0 mg/kg/injection, schedule: Q01DX001 (ip), vehicle: carboxymethylcellulose (CMC)) 91 % of control.

With `CC(C)=NOC(CC(=O)O)C(=O)O` (centres undefined), the T/C runs as follows: (dose: 100.0 mg/kg/injection, schedule: Q04DX002 (ip), vehicle: saline) 96 % of control; (dose: 200.0 mg/kg/injection, schedule: Q04DX002 (ip), vehicle: saline) 96 % of control; (dose: 400.0 mg/kg/injection, schedule: Q04DX002 (ip), vehicle: saline) 96 % of control.

On to `COC(=O)c1cccc2ccc3ccccc3c12`, for which the T/C is, setting by setting: (dose: 75.0 mg/kg/injection, schedule: Q04DX003 (ip), vehicle: saline) 97 % of control; (dose: 150.0 mg/kg/injection, schedule: Q04DX003 (ip), vehicle: saline) 103 % of control; (dose: 300.0 mg/kg/injection, schedule: Q04DX003 (ip), vehicle: saline) 94 % of control.

Values taken from PubChem BioAssay AID248 (DTP/NCI, 2004).
